Experiments:
Format in all cases: in vivo
[1] = tested on: lambsquarters (Chenopodium album); experiment: Test B preemergence; conditions: scale 0 to 100, 0 no effect, 100 complete control
Summary of the method: (§1)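 Post-treatment, species sat 13–15 days under greenhouse conditions before visual scoring against controls, 0 (no effect) through 100 (complete control). Application preemergence to sown seeds or postemergence at 1- to 4-leaf stage, using a non-phytotoxic solvent/surfactant formulation.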

[2] = tested on: rice (Oryza saliva); experiment: Test B preemergence; conditions: scale 0 to 100, 0 no effect, 100 complete control
Summary of the method: as §1

[3] = tested on: giant foxtail (Setaria faberii); experiment: Test B preemergence; conditions: scale 0 to 100, 0 no effect, 100 complete control
Summary of the method: as §1

[4] = tested on: corn (Zea mays); experiment: Test B preemergence; conditions: scale 0 to 100, 0 no effect, 100 complete control
Summary of the method: as §1

[5] = tested on: Surinam grass (Brachiaria decumbens); experiment: Test B preemergence; conditions: scale 0 to 100, 0 no effect, 100 complete control
Summary of the method: as §1

[6] = tested on: morning glory (Ipomoea hederacea); experiment: Test B preemergence; conditions: scale 0 to 100, 0 no effect, 100 complete control
Summary of the method: as §1

[7] = tested on: crabgrass (Digitaria sanguinalis); experiment: Test B preemergence; conditions: scale 0 to 100, 0 no effect, 100 complete control
Summary of the method: as §1

[8] = tested on: pigweed (Amaranthus retroflexus); experiment: Test B preemergence; conditions: scale 0 to 100, 0 no effect, 100 complete control
Summary of the method: as §1

[9] = tested on: cocklebur (Xanthium strumarium); experiment: Test B preemergence; conditions: scale 0 to 100, 0 no effect, 100 complete control
Summary of the method: as §1

[10] = tested on: velvetleaf (Abutilon theophrasti); experiment: Test B preemergence; conditions: scale 0 to 100, 0 no effect, 100 complete control
Summary of the method: as §1

[11] = tested on: barnyardgrass (Echinochloa crus-galli); experiment: Test B preemergence; conditions: scale 0 to 100, 0 no effect, 100 complete control
Summary of the method: as §1

[12] = tested on: goosegrass (Eleusine indica); experiment: Test C preemergence; conditions: for Plant response rating (0 to 100), Goosegrass: Rate 250 g/ha, visual evaluation after 12 to 14 days
Summary of the method: (§2)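 Visual injury scores of 0–100, with 100 meaning complete control, were given relative to controls after 12–14 days in the greenhouse. Treatments used a surfactant-containing non-phytotoxic solvent formulation, sprayed on seeded pots preemergence or on 1–4-leaf plants of 2–18 cm postemergence.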

[13] = tested on: giant foxtail (Setaria faberii); experiment: Test C preemergence; conditions: for Plant response rating (0 to 100), Foxtail, Giant: Rate 250 g/ha, visual evaluation after 12 to 14 days
Summary of the method: as §2

[14] = tested on: Sunflower; experiment: Test C preemergence
[15] = tested on: Surinam grass (Brachiaria decumbens); experiment: Test C preemergence; conditions: for Plant response rating (0 to 100), Surinam grass: Rate 250 g/ha, visual evaluation after 12 to 14 days
Summary of the method: as §2

[16] = tested on: bermudagrass (Cynodon dactylon); experiment: Test C preemergence; conditions: for Plant response rating (0 to 100 where 0 is no effect and 100 is complete control), Bermudagrass: Rate 250 g/ha, visual evaluation after 12 to 14 days
Summary of the method: as §2

[17] = tested on: crabgrass (Digitaria sanguinalis); experiment: Test C preemergence; conditions: for Plant response rating (0 to 100), Crabgrass: Rate 250 g/ha, visual evaluation after 12 to 14 days
Summary of the method: as §2

[18] = tested on: morningglory (Ipomoea hederacea); experiment: Test C preemergence; conditions: for Plant response rating (0 to 100), Morningglory: Rate 250 g/ha, visual evaluation after 12 to 14 days
Summary of the method: as §2

[19] = tested on: cocklebur (Xanthium strumarium); experiment: Test C preemergence; conditions: for Plant response rating (0 to 100), Cocklebur: Rate 250 g/ha, visual evaluation after 12 to 14 days
Summary of the method: as §2

[20] = tested on: velvetleaf (Abutilon theophrasti); experiment: Test C preemergence; conditions: for Plant response rating (0 to 100), Velvetleaf: Rate 250 g/ha, visual evaluation after 12 to 14 days
Summary of the method: as §2

[21] = tested on: common ragweed (Ambrosia elatior); experiment: Test C preemergence; conditions: for Plant response rating (0 to 100), Ragweed, Common: Rate 250 g/ha, visual evaluation after 12 to 14 days
Summary of the method: as §2

[22] = tested on: Sunflower; experiment: Test C preemergence; conditions: Rate 250 g/ha, visual evaluation after 12 to 14 days
[23] = Rate 62 g/ha, scale 0 to 100, 0 no effect, 100 complete control
[24] = preemergence, Rate 31 g/ha, scale 0 to 100
[25] = preemergence, Rate 125 g/ha, scale 0 to 100, 0 no effect, 100 complete control
[26] = Preemergence, Rate 500 g/ha, scale 0 to 100

CC(C)(C)c1ccn(C2SCN(c3cccc(OC(F)F)c3)C2=O)n1 (centres unmarked) [Compound 36]
Plant response rating, Lambsquarters ([1]; Preemergence, Rate 500 g/ha): 100
Plant response rating, Lambsquarters ([1]; preemergence, Rate 125 g/ha): 100
Plant response rating, Rice ([2]; Preemergence, Rate 500 g/ha): 90
Plant response rating, Foxtail, Giant ([3]; Preemergence, Rate 500 g/ha): 100
Plant response rating, Foxtail, Giant ([3]; preemergence, Rate 125 g/ha): 100
Plant response rating, Corn ([4]; Preemergence, Rate 500 g/ha): 0
Plant response rating, Corn ([4]; preemergence, Rate 125 g/ha): 0
Plant response rating, Surinam grass ([5]; Preemergence, Rate 500 g/ha): 100
Plant response rating, Surinam grass ([5]; preemergence, Rate 125 g/ha): 70
Plant response rating, Morningglory ([6]; Preemergence, Rate 500 g/ha): 0
Plant response rating, Crabgrass ([7]; Preemergence, Rate 500 g/ha): 100
Plant response rating, Crabgrass ([7]; preemergence, Rate 125 g/ha): 100
Plant response rating, Pigweed ([8]; Preemergence, Rate 500 g/ha): 100
Plant response rating, Cocklebur ([9]; Preemergence, Rate 500 g/ha): 0
Plant response rating, Cocklebur ([9]; preemergence, Rate 125 g/ha): 0
Plant response rating, Velvetleaf ([10]; Preemergence, Rate 500 g/ha): 0
Plant response rating, Barnyardgrass ([11]; Preemergence, Rate 500 g/ha): 100
Plant response rating, Barnyardgrass ([11]; preemergence, Rate 125 g/ha): 100
Plant response rating, Goosegrass [12, 23]: 100
Plant response rating, Goosegrass [12, 24]: 90
Plant response rating (0 to 100), Goosegrass ([12]; preemergence): 100
Plant response rating, Goosegrass [12, 25]: 100
Plant response rating, Foxtail, Giant [13, 23]: 0
Plant response rating, Foxtail, Giant [13, 24]: 90
Plant response rating (0 to 100), Foxtail, Giant ([13]; preemergence): 100
Plant response rating, Foxtail, Giant [13, 25]: 100
Plant response rating, Sunflower [14, 23]: 0
Plant response rating, Surinam grass [15, 23]: 70
Plant response rating, Surinam grass [15, 24]: 20
Plant response rating (0 to 100), Surinam grass ([15]; preemergence): 100
Plant response rating, Surinam grass [15, 25]: 70
Plant response rating, Bermudagrass [16, 23]: 100
Plant response rating, Bermudagrass [16, 24]: 100
Plant response rating (0 to 100 where 0 is no effect and 100 is complete control), Bermudagrass ([16]; preemergence): 100
Plant response rating, Bermudagrass [16, 25]: 100
Plant response rating, Crabgrass [17, 23]: 100
Plant response rating, Crabgrass [17, 24]: 90
Plant response rating (0 to 100), Crabgrass ([17]; preemergence): 100
Plant response rating, Crabgrass [17, 25]: 100
Plant response rating, Morningglory [18, 23]: 0
Plant response rating, Morningglory [18, 24]: 0
Plant response rating (0 to 100), Morningglory ([18]; preemergence): 50
Plant response rating, Morningglory [18, 25]: 0
Plant response rating, Cocklebur [19, 23]: 30
Plant response rating, Cocklebur [19, 24]: 0
Plant response rating (0 to 100), Cocklebur ([19]; preemergence): 30
Plant response rating, Velvetleaf [20, 23]: 0
Plant response rating, Velvetleaf [20, 24]: 0
Plant response rating (0 to 100), Velvetleaf ([20]; preemergence): 40
Plant response rating, Velvetleaf [20, 25]: 0
Plant response rating, Ragweed, Common [21, 23]: 0
Plant response rating, Ragweed, Common [21, 24]: 0
Plant response rating (0 to 100), Ragweed, Common ([21]; preemergence): 50
Plant response rating, Ragweed, Common [21, 25]: 30
Plant response rating (0 to 100), Sunflower [22]: 30

CCC(CC)c1ccn(C2SCN(c3cccc(C(F)(F)F)c3)C2=O)n1 (centres unmarked) [Compound 25]
Plant response rating, Lambsquarters ([1]; Preemergence, Rate 500 g/ha): 100
Plant response rating, Lambsquarters ([1]; preemergence, Rate 125 g/ha): 100
Plant response rating, Rice ([2]; Preemergence, Rate 500 g/ha): 0
Plant response rating, Rice ([2]; preemergence, Rate 125 g/ha): 0
Plant response rating, Foxtail, Giant ([3]; Preemergence, Rate 500 g/ha): 100
Plant response rating, Foxtail, Giant ([3]; preemergence, Rate 125 g/ha): 100
Plant response rating, Corn ([4]; Preemergence, Rate 500 g/ha): 0
Plant response rating, Corn ([4]; preemergence, Rate 125 g/ha): 0
Plant response rating, Surinam grass ([5]; Preemergence, Rate 500 g/ha): 80
Plant response rating, Surinam grass ([5]; preemergence, Rate 125 g/ha): 80
Plant response rating, Morningglory ([6]; Preemergence, Rate 500 g/ha): 90
Plant response rating, Morningglory ([6]; preemergence, Rate 125 g/ha): 0
Plant response rating, Crabgrass ([7]; Preemergence, Rate 500 g/ha): 100
Plant response rating, Crabgrass ([7]; preemergence, Rate 125 g/ha): 100
Plant response rating, Pigweed ([8]; Preemergence, Rate 500 g/ha): 100
Plant response rating, Pigweed ([8]; preemergence, Rate 125 g/ha): 100
Plant response rating, Cocklebur ([9]; Preemergence, Rate 500 g/ha): 0
Plant response rating, Cocklebur ([9]; preemergence, Rate 125 g/ha): 0
Plant response rating, Velvetleaf ([10]; Preemergence, Rate 500 g/ha): 0
Plant response rating, Velvetleaf ([10]; preemergence, Rate 125 g/ha): 0
Plant response rating, Barnyardgrass ([11]; Preemergence, Rate 500 g/ha): 100
Plant response rating, Barnyardgrass ([11]; preemergence, Rate 125 g/ha): 100
Plant response rating, Goosegrass [12, 26]: 100
Plant response rating, Goosegrass [12, 23]: 100
Plant response rating, Goosegrass [12, 24]: 100
Plant response rating (0 to 100), Goosegrass ([12]; preemergence): 100
Plant response rating, Goosegrass [12, 25]: 100
Plant response rating, Foxtail, Giant [13, 26]: 90
Plant response rating, Foxtail, Giant [13, 23]: 90
Plant response rating, Foxtail, Giant [13, 24]: 20
Plant response rating (0 to 100), Foxtail, Giant ([13]; preemergence): 100
Plant response rating, Foxtail, Giant [13, 25]: 70
Plant response rating, Sunflower [14, 23]: 30
Plant response rating, Sunflower ([14]; Rate 500 g/ha, scale 0 to 100): 70
Plant response rating, Surinam grass [15, 26]: 80
Plant response rating, Surinam grass [15, 23]: 40
Plant response rating, Surinam grass [15, 24]: 20
Plant response rating (0 to 100), Surinam grass ([15]; preemergence): 80
Plant response rating, Surinam grass [15, 25]: 80
Plant response rating, Bermudagrass [16, 26]: 100
Plant response rating, Bermudagrass [16, 23]: 100
Plant response rating, Bermudagrass [16, 24]: 90
Plant response rating (0 to 100 where 0 is no effect and 100 is complete control), Bermudagrass ([16]; preemergence): 100
Plant response rating, Bermudagrass [16, 25]: 100
Plant response rating, Crabgrass [17, 26]: 100
Plant response rating, Crabgrass [17, 23]: 100
Plant response rating, Crabgrass [17, 24]: 100
Plant response rating (0 to 100), Crabgrass ([17]; preemergence): 100
Plant response rating, Crabgrass [17, 25]: 100
Plant response rating, Morningglory [18, 26]: 90
Plant response rating, Morningglory [18, 23]: 20
Plant response rating, Morningglory [18, 24]: 0
Plant response rating (0 to 100), Morningglory ([18]; preemergence): 100
Plant response rating, Morningglory [18, 25]: 30
Plant response rating, Cocklebur [19, 26]: 70
Plant response rating, Cocklebur [19, 23]: 0
Plant response rating, Cocklebur [19, 24]: 0
Plant response rating (0 to 100), Cocklebur ([19]; preemergence): 100
Plant response rating, Cocklebur [19, 25]: 0
Plant response rating, Velvetleaf [20, 26]: 20
Plant response rating, Velvetleaf [20, 23]: 30
Plant response rating, Velvetleaf [20, 24]: 0
Plant response rating (0 to 100), Velvetleaf ([20]; preemergence): 70
Plant response rating, Velvetleaf [20, 25]: 0
Plant response rating, Ragweed, Common [21, 26]: 100
Plant response rating, Ragweed, Common [21, 23]: 70
Plant response rating, Ragweed, Common [21, 24]: 0
Plant response rating (0 to 100), Ragweed, Common ([21]; preemergence): 70
Plant response rating, Ragweed, Common [21, 25]: 70
Plant response rating (0 to 100), Sunflower [22]: 70
